Values of other authors in patent publication US20060280700A1, “Oral hygiene system to fight the effects of aging on the mouth, gums, and teeth” (priority 2005, published 2006).

Assays:
[1] = test system: Pophyromonas proteinases
[2] = test system: oral squamous carcinoma cells; conditions: for inhibition in growth of oral squamous carcinoma cells: in culture
[3] = test system: Streptococcus mutants; conditions: rodent model inoculated with Streptococcus mutants

Row | Molecule | inhibition of the activity of Pophyromonas proteinases [1] | inhibition of DNA synthesis [2] | inhibition in growth of oral squamous carcinoma cells [2] | cariogenic action [3]
1 | O=C(O[C@@H]1Cc2c(O)cc(O)cc2O[C@@H]1c1cc(O)c(O)c(O)c1)c1cc(O)c(O)c(O)c1 [EGCG, (−)-epigallocatechin-3-gallate] | significantly inhibited | dose-dependent inhibition | significant dose dependent inhibition | 
2 | (−)-epicatechin-3-gallate [ECG] | significantly inhibited | dose-dependent inhibition | significant dose dependent inhibition | 
3 | O=C(O[C@@H]1Cc2c(O)cc(O)cc2O[C@H]1c1ccc(O)c(O)c1)c1cc(O)c(O)c(O)c1 [(−)-catechin gallate] | significantly inhibited |  |  | 
4 | OC[C@@H](O)[C@H](O)[C@@H](O)CO [Xylitol] |  |  |  | little or no cariogenic action
5 | Oc1cc(O)c2c(c1)O[C@H](c1cc(O)c(O)c(O)c1)[C@H](O)C2 [EGC, (−) epigauocatechin] |  | dose-dependent inhibition | significant dose dependent inhibition | 
6 | (−)-gallocatechin gallate | significantly inhibited |  |  | 
